# Data taken from patent publication US20260041679A1, “METHOD OF TREATING HYPERTENSION WITH THE ALDOSTERONE SYNTHASE INHIBITOR BAXDROSTAT” (CINCOR PHARMA, INC., priority 2022, published 2026).
# Tested on: patients with uHTN
# Test: Study 124 Part 1: seated SBP in patients with uncontrolled hypertension (Example 9)
# Format: in vivo, human
# Set-up: key to Model-Based Least-Squares Mean Change from Baseline (SBP) / LSMEANS change from baseline (SBP) / Model-Based Least-Square Mean Change from Baseline (SBP): LS mean change from baseline in seated SBP, mmHg
# Experimental: Study 124 is a double-blind, placebo-controlled, dose range finding, multicenter study conducted in patients with uHTN receiving background antihypertensive agent(s) that are either an ACEI or an ARB, an ACEI/ARB plus a thiazide diuretic, or an ACEI/ARB plus a calcium channel blocker. The study consists of two parts: Part 1 consists of an 8-week treatment period in which the patients are to be assigned to one of 4 dose groups in equal ratio testing 0.5 mg, 1 mg, and 2 mg baxdrostat effects compared to a placebo. Patients are to administer double-blind baxdrostat tablets once per day while they continue taking the background antihypertensive medications. After 8 weeks of double-blind treatment, patients were to enter part 2 of the study unless the patient was assigned to the 2 mg group and the SBP remains ≥130 mmHg. In part 2 of the study, all patients are to cease dosing with background antihypertensive medication and take only baxdrostat 2 mg dose as a monotherapy for 4 weeks.
# Key inclusion criteria include that patients are on a stable regimen of anti-hypertensive agents for at least 8 weeks; and have a seated BP≥140 mmHg. Key exclusion criteria include a seated SBP≥180 mmHg and estimated glomerular filtration rate (eGFR)<30 mL/min/1.73 m^2.
# In this table, CI=confidence interval, DBP=diastolic blood pressure, LS=least squares, SBP=systolic blood pressure, SE=standard error. The LS means, CIs, and p-values are from an MMRM model with change from baseline as the dependent variable with randomized treatment, visit, and treatment-by-visit interaction as fixed categorical effects; along with covariates of the baseline value, race (African American versus non-African American), and the type of background antihypertensive regimen. The restricted maximum likelihood estimation (REML) approach will be used with an unstructured covariance matrix and the Kenward-Roger approximation for degrees of freedom.
# [1] = 2 mg (N = 9), mITT, Female Non-Hispanic Female Patients
# [2] = 2 mg (N = 13), mITT, Non-Hispanic Male Patients
# [3] = 2 mg (N = 16), mITT Population for Hispanic Compliant Patients
# [4] = 2 mg (N = 16), mITT, Hispanic Male Patients
# [5] = 2 mg (N = 19), mITT, Female Hispanic/Latino Patients
# [6] = Female Hispanic/Latino, mITT, 0.5 mg, Week 6
# [7] = Female Hispanic/Latino, mITT, 0.5 mg, Week 8
# [8] = Hispanic or Latino, ITT, 0.5 mg, Week 6
# [9] = Hispanic or Latino, ITT, 0.5 mg, Week 8
# [10] = Hispanic or Latino, ITT, 1 mg, Week 6
# [11] = Hispanic or Latino, ITT, 1 mg, Week 8
# [12] = Hispanic or Latino, ITT, 2 mg, Week 6
# [13] = Hispanic or Latino, ITT, 2 mg, Week 8
# [14] = Placebo (N = 8), mITT Population for Compliance for Black Patients
structure (smiles),measurement,setting,value
"CCC(=O)N[C@@H]1CCCc2c(-c3ccc4c(c3)CCC(=O)N4C)cncc21 [baxdrostat, (R)—N-(4-(1-methyl-2-oxo-1,2,3,4-tetrahydroquinolin-6-yl)-5,6,7,8-tetrahydroisoquinolin-8-yl) propionamide]",LS Mean Change from Baseline (SE) in SBP,"1 mg, Wk 6",−13.5 (1.88) mm Hg
same,"SBP Change from Baseline to Week 8, Mean",2 mg,−19.3 mmHg
same,"SBP Change from Baseline to Week 8, Median",2 mg,−18.0 mmHg
same,"SBP at Week 8, Median",2 mg,125.0 mmHg
same,efficacy in adherent Hispanic/Latino patients,2 mg,"effective in adherent Hispanic/Latino, but efficacy response was substantially lower"
same,efficacy in the Black/African American subgroup,2 mg,effective
same,Model-Based Least-Squares Mean Change from Baseline (SBP),"2 mg (N = 9), Week 2, mITT, Female Non-Hispanic Female Patients",−15.6
same,Model-Based Least-Squares Mean Change from Baseline (SBP),"2 mg (N = 9), Week 4, mITT, Female Non-Hispanic Female Patients",−23.8
same,Model-Based Least-Squares Mean Change from Baseline (SBP),"2 mg (N = 9), Week 6, mITT, Female Non-Hispanic Female Patients",−26.1
same,Model-Based Least-Squares Mean Change from Baseline (SBP),"2 mg (N = 9), Week 8, mITT, Female Non-Hispanic Female Patients",−32.8
same,"Comp w/ Placebo at Week 6, Diff (95% CI)",[1],"−15.8 (−29.06, −2.47)"
same,"Comp w/ Placebo at Week 8, Diff (95% CI)",[1],"−19.8 (−29.87, −9.73)"
same,Model-Based Least-Squares Mean Change from Baseline (SBP),"2 mg (N = 13), Week 2, mITT, Non-Hispanic Male Patients",−16.2
same,Model-Based Least-Squares Mean Change from Baseline (SBP),"2 mg (N = 13), Week 4, mITT, Non-Hispanic Male Patients",−17.4
same,Model-Based Least-Squares Mean Change from Baseline (SBP),"2 mg (N = 13), Week 6, mITT, Non-Hispanic Male Patients",−21.5
same,Model-Based Least-Squares Mean Change from Baseline (SBP),"2 mg (N = 13), Week 8, mITT, Non-Hispanic Male Patients",−22.3
same,"Comp w/ Placebo at Week 6, Diff (95% CI)",[2],"−11.6 (−22.42, −0.83)"
same,"Comp w/ Placebo at Week 8, Diff (95% CI)",[2],"−7.4 (−18.32, 3.53)"
same,LSMEANS change from baseline (SBP),"2 mg (N = 16), Week 2, mITT Population for Hispanic Compliant Patients",−4.6
same,Model-Based Least-Squares Mean Change from Baseline (SBP),"2 mg (N = 16), Week 2, mITT, Hispanic Male Patients",−5.1
same,LSMEANS change from baseline (SBP),"2 mg (N = 16), Week 4, mITT Population for Hispanic Compliant Patients",−13.9
same,Model-Based Least-Squares Mean Change from Baseline (SBP),"2 mg (N = 16), Week 4, mITT, Hispanic Male Patients",−14.6
same,LSMEANS change from baseline (SBP),"2 mg (N = 16), Week 6, mITT Population for Hispanic Compliant Patients",−15.4
same,Model-Based Least-Squares Mean Change from Baseline (SBP),"2 mg (N = 16), Week 6, mITT, Hispanic Male Patients",−17.5
same,LSMEANS change from baseline (SBP),"2 mg (N = 16), Week 8, mITT Population for Hispanic Compliant Patients",−22.8
same,Model-Based Least-Squares Mean Change from Baseline (SBP),"2 mg (N = 16), Week 8, mITT, Hispanic Male Patients",−21.9
same,"Comp w Placebo at Week 6, Diff (95% CI)",[3],"−6.0 (−13.91, 2.00)"
same,"Comp w Placebo at Week 8, Diff (95% CI)",[3],"−6.6 (−13.07, −0.13)"
same,"Comp w/ Placebo at Week 6, Diff (95% CI)",[4],"−6.2 (−14.14, 1.67)"
same,"Comp w/ Placebo at Week 8, Diff (95% CI)",[4],"−3.2 (−9.28, 2.87)"
same,Model-Based Least-Squares Mean Change from Baseline (SBP),"2 mg (N = 19), Week 2, mITT, Female Hispanic/Latino Patients",−6.0
same,Model-Based Least-Squares Mean Change from Baseline (SBP),"2 mg (N = 19), Week 4, mITT, Female Hispanic/Latino Patients",−7.1
same,Model-Based Least-Squares Mean Change from Baseline (SBP),"2 mg (N = 19), Week 6, mITT, Female Hispanic/Latino Patients",−8.0
same,Model-Based Least-Squares Mean Change from Baseline (SBP),"2 mg (N = 19), Week 8, mITT, Female Hispanic/Latino Patients",−12.6
same,"Comp w/ Placebo at Week 6, Diff (95% CI)",[5],"−1.5 (−13.53, 10.44)"
same,"Comp w/ Placebo at Week 8, Diff (95% CI)",[5],"6.5 (−4.02, 16.98)"
same,"SBP at Week 8, Mean","2 mg QD, mITT",126.6 mmHg
same,"SBP LS mean change from baseline (SE), MMRM","2 mg, Week 8",−19.8 (1.67) mm Hg
same,SBP LS mean difference (SE) vs placebo,"2 mg, Week 8",−3.2 (2.23) mmHg
same,LS Mean Change from Baseline (SE) in SBP,"2 mg, Wk 2",−8.8 (1.65) mm Hg
same,LS Mean Change from Baseline (SE) in SBP,"2 mg, Wk 4",−13.6 (1.65) mm Hg
same,LS Mean Change from Baseline (SE) in SBP,"2 mg, Wk 6",−15.7 (1.93) mm Hg
same,Model-based LS mean change from baseline (LSMEANS),"Female Hispanic/Latino, mITT, 0.5 mg, Week 2",−6.2
same,Model-based LS mean change from baseline (LSMEANS),"Female Hispanic/Latino, mITT, 0.5 mg, Week 4",−13.4
same,"Comp w/ Placebo, Diff (95% CI)",[6],"−4.9 (−16.80, 6.97) 0.412"
same,Model-based LS mean change from baseline (LSMEANS),[6],−11.3
same,"Comp w/ Placebo, Diff (95% CI)",[7],"3.0 (−7.45, 13.46) 0.567"
same,Model-based LS mean change from baseline (LSMEANS),[7],−16.1
same,Model-based LS mean change from baseline (LSMEANS),"Hispanic or Latino, ITT, 0.5 mg, Week 2",−6.9
same,Model-based LS mean change from baseline (LSMEANS),"Hispanic or Latino, ITT, 0.5 mg, Week 4",−13.0
same,"Comp w/ Placebo, Diff (95% CI)",[8],"−4.1 (−10.84, 2.69) 0.235"
same,Model-based LS mean change from baseline (LSMEANS),[8],−13.3
same,"Comp w/ Placebo, Diff (95% CI)",[9],"−1.1 (−4.54, 6.66) 0.709"
same,Model-based LS mean change from baseline (LSMEANS),[9],−17.1
same,Model-based LS mean change from baseline (LSMEANS),"Hispanic or Latino, ITT, 1 mg, Week 2",−7.3
same,Model-based LS mean change from baseline (LSMEANS),"Hispanic or Latino, ITT, 1 mg, Week 4",−8.1
same,"Comp w/ Placebo, Diff (95% CI)",[10],"−1.4 (−8.71, 5.92)"
same,Model-based LS mean change from baseline (LSMEANS),[10],−10.6
same,"Comp w/ Placebo, Diff (95% CI)",[11],"4.0 (−2.00, 10.06)"
same,Model-based LS mean change from baseline (LSMEANS),[11],−14.1
same,Model-based LS mean change from baseline (LSMEANS),"Hispanic or Latino, ITT, 2 mg, Week 2",−5.0
same,Model-based LS mean change from baseline (LSMEANS),"Hispanic or Latino, ITT, 2 mg, Week 4",−10.1
same,"Comp w/ Placebo, Diff (95% CI)",[12],"−2.5 (−9.31, 4.24)"
same,Model-based LS mean change from baseline (LSMEANS),[12],−11.8
same,"Comp w/ Placebo, Diff (95% CI)",[13],"1.9 (−3.69, 7.44)"
same,Model-based LS mean change from baseline (LSMEANS),[13],−16.3
same,Model-Based Least-Square Mean Change from Baseline (SBP),"Placebo (N = 8), Week 2, mITT Population for Compliance for Black Patients",−7.7
same,Model-Based Least-Square Mean Change from Baseline (SBP),"Placebo (N = 8), Week 4, mITT Population for Compliance for Black Patients",−18.3
same,Model-Based Least-Square Mean Change from Baseline (SBP),"Placebo (N = 8), Week 6, mITT Population for Compliance for Black Patients",−20.6
same,Model-Based Least-Square Mean Change from Baseline (SBP),"Placebo (N = 8), Week 8, mITT Population for Compliance for Black Patients",−27.6
same,"Comp w/ Placebo at Week 6, Diff (95% CI)",[14],"−10.3 (−24.04, 3.43)"
same,"Comp w/ Placebo at Week 8, Diff (95% CI)",[14],"−13.4 (−25.04, −1.69)"
